Experiment [1] deals with whole blood (WB) clot. Description: Clot burst pressure (CBP) assay on conditioned whole blood. The format is cell-based. As to conditions: for CBP normalized to individual donor baseline (times as strong): recalcified 6 mM CaCl2, 37 C 30 min. The protocol: An exemplary embodiment of the present disclosure was used to obtain test data as follows. Blood from donors (n=7) was collected into 3.2% sodium citrate tubes. Blood was divided and treated to achieve the following conditions for a hypocoagulable state: 0.10, 0.15, and 0.20 USP heparin/mL blood; for a hypercoagulable state, blood was treated with a 1.0 or 2.0 g/L addition of fibrinogen. 2 mm holes were drilled into 6-well polystyrene plates and packing tape was used to cover the bottom. Blood was recalcified with CaCl2 and pipetted into the holes. The plates were incubated at 37 C for 30 minutes to allow for thrombus formation. Tape was removed after incubation. A pressure cap was designed with an inlet for fluid from a syringe pump and an outlet for outflow and was secured in the wells with a watertight seal. Outflow led to a vertical graduated measurement column where pressure was converted from cmH2O to mmHg for data analysis.
The device comprises four primary components as shown in FIG. 1: a syringe pump, a pressure cap, a 6-well plate assembly, and a water column. A Programmable Syringe Pump was programmed to pump a 100 cc syringe at 1 mL/s at a continuous rate. The syringe pump is coupled to a pressure cap assembly.
The pressure cap assembly shown in FIGS. 2 and 3 directs fluid flow directly over a clot and prevents pressure loss to the environment. The cap has two female ports allowing for an inlet connection from the syringe pump and an outlet connecting to the water column. The cap has three legs to avoid direct contact with a clot. An O-Ring (Dash 242) fits in the groove found around the pressure cap ensuring a snug fit in a standard 6-well plate. As fluid enters the pressure cap, it is directed into a compartment where a formed clot is suspended. Backflow fluid rises up a 150 cm water column created from clear PVC pipe marked at 5 cm intervals. All connections used Luer locks and barbed connections to prevent fluid loss.
A 20″×20″ HDPE board was used as the base of the device, which contained the 6-well plate assembly and water column. 4, 2″ screws were used to elevate the 6-well plate assembly to allow for easy visual inspection after trial runs. A single 5/64″ hole was drilled into the centers of each well in a 6-well plate. 220-grit sandpaper was used in a circular manner on the inner surface of the well-plate to provide a sheared surface for platelet adhesion. Clear packing tape was used to cover the holes on the bottom of the plate prior to the start of the assay.
Venipuncture whole blood (WB) was collected from donors (male and female) who were at least 18 years of age and had not taken anticoagulant medication in the past 14 days. Blood was drawn from the antecubital fossa using a 19G needle into a standard blue top 3.2% sodium citrate vacutainer tube. Tubes were placed on a rocker at room temperature prior to use in the assay, but all assay runs were initiated within 30 minutes of blood draw.
WB was conditioned to mimic hyper and hypocoagulable states. RiaSTAP a lyophilized fibrinogen concentrate, was used to generate a hypercoagulable condition. WB was conditioned with a 1.0 mg/mL or 2.0 mg/mL bolus of fibrinogen. Heparin sodium salt (Sigma-Aldrich, OH) was reconstituted and added to WB at 0.10, 0.15, 0.20 USP/mL amounts to generate a hypocoagulable state. 6 mM of CaCl2) was added to each conditioned blood group and a control group to recalcify and promote coagulation.
35 μL of conditioned or control WB was placed in the 5/64″ hole above the packing tape in each well of the 6-well plates. The entire plate was incubated at 37 C for 30 min with the plate lid on. After 30 min, the plate was removed from the incubator and the packing tape on the bottom was removed. The pressure cap was placed in a single well in a spiral manner and an air-tight seal was created with the O-Ring. One port of the pressure cap was connected to the syringe pump and the other port to the vertical water column. […]

In experiment [2] the test system is whole blood (WB) clot. Described as above. The format is cell-based.
Where [3] appears, read: Whole Blood w/ Heparin 0.10 USP/mL.
Setting [4] is: Whole Blood w/ Heparin 0.15 USP/mL.
Where [5] appears, read: Whole Blood w/ Heparin 0.20 USP/mL.

With Heparin sodium salt, the “Clot Integrity” value in the experiment on whole blood (WB) clot [1] (setting [3]) is recorded as “Weakened Clot”; with whole blood (WB) clot [1] (setting [4]), “Weakened Clot”; with whole blood (WB) clot [1] (setting [5]), “Weakened Clot”; in the experiment on whole blood (WB) clot [2] (Whole Blood w/ Heparin 0.25 USP/mL) it was “Porous Clot”; with whole blood (WB) clot [2] (Whole Blood w/ Heparin 0.35 USP/mL, listed as heparin, sodium salt), “completely inhibits clot production”; in the experiment with whole blood (WB) clot [2] (Whole Blood w/ Heparin 0.35 USP/mL, sodium salt), “No Clot Formation”. Moreover, the “Difference Between All Groups in CBP” value in the experiment on whole blood (WB) clot [1] (setting [3]), in the experiment with whole blood (WB) clot [1] (setting [4]) and in the experiment on whole blood (WB) clot [1] (setting [5]) was “Yes” throughout. For the same substance, in the experiment with whole blood (WB) clot [1] (between the 0.10 and 0.20 USP heparin/mL group, whole blood), the “Dose dependence of clot strength (CBP)” value is reported as “dose-dependent weakness”. Besides, the Clot formation result in the experiment on whole blood (WB) clot [1] (heparin 0.20-0.10 USP/mL range in whole blood) is recorded as “weaker, but stable clot”. The “CBP normalized to individual donor baseline (times as strong)” value in the experiment with whole blood (WB) clot [1] (whole blood + 0.10 USP heparin/mL) was 0.54±0.19; in the experiment on whole blood (WB) clot [1] (whole blood + 0.15 USP heparin/mL), 0.41±0.17; in the experiment on whole blood (WB) clot [1] (whole blood + 0.20 USP heparin/mL), 0.25±0.02.

Values taken from patent publication US20260227379A1, “DEVICES AND METHODS FOR CLOT BURST PRESSURE MEASUREMENT” (THE BOARD OF REGENTS OF THE UNIVERSITY OF TEXAS SYSTEM, priority 2023, published 2026).
